Laboratory results taken from US20030148518A1, “Method for mass propogation of podophyllum hexandrum royle using embryo culture technique” (priority 2001, published 2003).

Tests used:
[1] = system: Podophyllum hexandrum zygotic embryos; test: Germination of excised zygotic embryos cultured on different media supplemented with Gibberellic acid; conditions: 2.5 μM Gibberellic acid in different media (B5, MS, WPM); excised zygotic embryos of different regimes
Experimental: (§1) To describe in detail, the method comprises collection of mature pods of P. hexandrum Royle from their natural habitats in the Western Himalayas at an altitude ranging from 2700 m-3500 m above mean sea level during the last week of August and first week of September. Immediately after collection, the seeds were separated from the pulp. Prior to disinfection with 0.1% Bavistin and streptomycin sulphate (0.1%) for 15 minutes, followed by a thorough washing of seeds. After a 1 minute dip in 70% alcohol and surface sterilization in 0.1% mercuric chloride for 7 minutes, all traces of mercuric chloride were finally washed off by 4-5 rinses in sterile distilled water. The surface sterilized seeds were then dissected by a sharp excision with a scalpel blade at the base of the microplyar lobe and embryos were carefully squeezed out of their micropylar groove. The embryos were cultured on B-5 (Gamborg et al., 1968) medium supplemented with 3% sucrose of pH 5.8 adjusted with 1N KOH and HCl prior to the addition of agar (0.8%) and were finally sterilized at […] for 20 minutes. All the cultures were maintained in this medium for one week at 25±2° C. in dark for embryo germination. […]

[2] = system: Podophyllum hexandrum emblings; test: True leaf emergence after embling development and field transfer; conditions: media supplemented with 2.5 μM Gibberellic acid; after 12 weeks of field transfer
Experimental: as §1

## C=C1C[C@]23C[C@@]1(O)CC[C@H]2[C@@]12C=C[C@H](O)[C@@](C)(C(=O)O1)[C@H]2[C@@H]3C(=O)O [Gibberellic acid]
[1]
  embryo germination: Germination was evoked in all the media
[2]
  true leaf emergence: no true leaf emergence was recorded
